Measurements: US7754694B2, “Pyrrolo[2, 1-C][1, 4]benzodiazepine-glycoside prodrug useful as a selective anti tumor agent” (priority 2007, dated 2010)

What was measured:
E. coli β-galactosidase = E. coli β-galactosidase (Escherichia coli, UniProt P00722); assay type: biochemical; conditions: in the presence of β-galactosidase, 60-90 minutes, 37° C., pH 7.2 (phosphate buffer)
Experimental: FIG. 1. A drawing illustrating the effect of the prodrug 1a 1 μmole was treated with 2 units of E. coli β galactosidase enzyme and the progress of the hydrolysis was monitored by reverse phase HPLC. HPLC conditions: C18 Reverse phase column. Mobile phase 40:60 CH3CN/ H2O, flow rate of 1 ml/ min. UV detection: wave length 254 nm.
The prodrug 1a 1 μmole was treated with 2 units of E. coli β galactosidase enzyme and the progress of the hydrolysis was monitored by reverse phase HPLC. The results are presented in the form of a graph as illustrated in FIG. 1. Biological Studies Of The Prodrugs

A375 cells = test: Cell cycle progression by FACS (subG1 and G2/M population) in A375 cells; assay type: cell-based, human; conditions: 1a 42 μM, 1b 23.4 μM
Text: (§1) The cytotoxic effects of the newly synthesized compounds 1a and 1b and their respective PBD imines were examined by cell cycle progression experiments on human tumor cells, by using fluorescence-activated cell sorting (FACS) analysis, in the absence and in the presence of β-galactosidase enzyme. In the primary flow cytometric study, the DNA content of the cells was used as a major determinant for cell count. The subG1 population, a conspicuous indicator for cell death, presumably apoptosis, and G2/M population was also determined in HepG2 and A375 cell lines.

HepG2 cells = test: Cell cycle progression by FACS (subG1 and G2/M population) in HepG2 cells; assay type: cell-based, human
Text: as §1
Next we evaluated the prodrugs for their activation efficiency by intracellular β-galactosidase, in human liver cancer, HepG2 cells.

Sequence of E. coli β-galactosidase (P00722 2-1024): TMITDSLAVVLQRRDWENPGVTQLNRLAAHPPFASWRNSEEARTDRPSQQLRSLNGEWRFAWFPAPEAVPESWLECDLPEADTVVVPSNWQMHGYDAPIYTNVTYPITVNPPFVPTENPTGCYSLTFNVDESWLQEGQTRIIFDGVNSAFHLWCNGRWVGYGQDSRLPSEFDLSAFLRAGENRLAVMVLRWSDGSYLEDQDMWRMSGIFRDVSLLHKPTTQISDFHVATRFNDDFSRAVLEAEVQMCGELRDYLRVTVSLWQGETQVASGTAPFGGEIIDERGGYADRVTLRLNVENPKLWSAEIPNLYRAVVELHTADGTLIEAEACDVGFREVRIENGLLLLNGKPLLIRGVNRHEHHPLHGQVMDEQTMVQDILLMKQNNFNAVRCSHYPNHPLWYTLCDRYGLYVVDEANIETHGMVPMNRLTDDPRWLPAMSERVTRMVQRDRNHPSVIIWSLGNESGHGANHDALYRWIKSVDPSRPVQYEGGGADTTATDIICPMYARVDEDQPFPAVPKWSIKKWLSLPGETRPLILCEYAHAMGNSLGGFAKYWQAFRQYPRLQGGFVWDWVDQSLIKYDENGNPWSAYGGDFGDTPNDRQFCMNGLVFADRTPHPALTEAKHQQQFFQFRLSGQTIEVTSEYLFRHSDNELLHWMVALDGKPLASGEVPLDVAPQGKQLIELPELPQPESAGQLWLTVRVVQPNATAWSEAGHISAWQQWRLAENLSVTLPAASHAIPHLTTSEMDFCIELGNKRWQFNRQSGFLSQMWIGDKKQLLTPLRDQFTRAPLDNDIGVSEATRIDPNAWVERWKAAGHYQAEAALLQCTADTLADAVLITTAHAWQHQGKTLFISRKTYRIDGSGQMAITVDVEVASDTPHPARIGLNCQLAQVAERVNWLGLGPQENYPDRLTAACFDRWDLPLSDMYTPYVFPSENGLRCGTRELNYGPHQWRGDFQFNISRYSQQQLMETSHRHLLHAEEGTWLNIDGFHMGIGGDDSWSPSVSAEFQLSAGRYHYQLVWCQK

COc1cc2c(cc1OCCCOc1cc3c(cc1OC)C(=O)N1CCC[C@H]1[C@H](O)N3C(=O)OCc1ccc(O[C@@H]3O[C@H](CO)[C@H](O)[C@H](O)[C@H]3O)c([N+](=O)[O-])c1)N(C(=O)OCc1ccc(O[C@@H]3O[C@H](CO)[C@H](O)[C@H](O)[C@H]3O)c([N+](=O)[O-])c1)[C@@H](O)[C@@H]1CCCN1C2=O [Compound 1b, 1,1′-[[(propane-1,3-diyl)dioxy]-bis(11S,11aS)-10-(4-β-D -galactopyranosyloxy-3-nitrophenyl)methoxycarbonyl-11-hydroxy-7-methoxy-1,2,3,-10,11,11a-hexahydro-5H-pyrrolo[2,1-c][1,4]-benzodiazepin-5-one]]
activation of the prodrug by β-galactosidase (E. coli β-galactosidase): activated to their corresponding carbinolamines
apoptosis / cell death in A375 cells with E. coli β-galactosidase (A375 cells; A375, with E. coli β-galactosidase): apoptosis identical to that of the parent drugs 6a and 6b respectively
amount of cell death in A375 cells in the absence of the enzyme (A375 cells; A375, without β-galactosidase): insignificant
cytometric profile / apoptotic response in HepG2 cells in the presence of E. coli β-galactosidase (HepG2 cells; HepG2, with added E. coli β-galactosidase): profile comparable to that of the parent drug 6b
cytometric profile / apoptotic response in HepG2 cells in the absence of E. coli β-galactosidase (HepG2 cells; HepG2, without added enzyme (intracellular β-galactosidase)): block in the G2/M phase of the cell cycle
